Reference: patent publication US11111237B2, “Bicyclic compound and use thereof” (SK BIOPHARMACEUTICALS CO., LTD., priority 2019, dated 2021)
Counter-ions that a name gives are not always drawn.

What follows are compounds tested against PRMT5-MEP50 enzyme complex (Homo sapiens (Human), UniProt O14744) (assay: PRMT5 enzyme activity in vitro assay (methylation of histone H4R3, ELISA absorbance at 450 nm)). Conditions: SAM, histone H4 peptide, room temperature 2 hours, 8 points from 10 μM to 0.128 nM.
Chain of PRMT5-MEP50 enzyme complex (O14744 2-637): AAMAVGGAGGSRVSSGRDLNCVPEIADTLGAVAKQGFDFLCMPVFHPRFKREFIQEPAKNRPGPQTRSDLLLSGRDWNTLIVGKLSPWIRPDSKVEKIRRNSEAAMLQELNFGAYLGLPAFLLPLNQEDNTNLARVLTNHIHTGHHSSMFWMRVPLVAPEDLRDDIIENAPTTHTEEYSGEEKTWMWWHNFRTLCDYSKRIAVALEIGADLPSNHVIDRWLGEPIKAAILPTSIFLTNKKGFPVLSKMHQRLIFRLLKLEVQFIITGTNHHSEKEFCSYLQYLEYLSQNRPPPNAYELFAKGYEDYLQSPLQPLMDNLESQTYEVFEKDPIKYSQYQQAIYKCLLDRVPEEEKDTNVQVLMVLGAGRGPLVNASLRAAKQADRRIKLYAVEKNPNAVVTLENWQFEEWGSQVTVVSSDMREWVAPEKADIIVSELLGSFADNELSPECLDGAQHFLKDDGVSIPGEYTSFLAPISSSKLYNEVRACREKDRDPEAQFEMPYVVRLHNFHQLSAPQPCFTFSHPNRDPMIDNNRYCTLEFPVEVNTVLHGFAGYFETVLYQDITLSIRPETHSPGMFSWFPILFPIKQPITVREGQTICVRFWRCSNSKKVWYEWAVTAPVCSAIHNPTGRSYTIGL
Chain of PRMT5-MEP50 enzyme complex (Q9BQA1 2-342 partner): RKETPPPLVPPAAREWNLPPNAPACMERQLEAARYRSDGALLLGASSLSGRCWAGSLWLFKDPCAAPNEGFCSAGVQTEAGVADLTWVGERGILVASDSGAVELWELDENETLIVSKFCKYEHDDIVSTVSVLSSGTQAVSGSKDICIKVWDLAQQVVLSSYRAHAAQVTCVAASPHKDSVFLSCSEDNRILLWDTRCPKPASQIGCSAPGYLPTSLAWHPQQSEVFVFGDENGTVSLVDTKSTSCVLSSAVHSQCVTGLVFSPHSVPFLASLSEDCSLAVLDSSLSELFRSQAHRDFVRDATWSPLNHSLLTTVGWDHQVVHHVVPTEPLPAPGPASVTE
Type: biochemical
Summary of the method: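 Human PRMT5-MEP50 was prepared at 5 μg/mL with SAM at 2 μM and reacted 2 h at room temperature on plate-coated histone H4 (1-20) peptide. An 8-point 1:5 compound series ran from 10 μM to 0.128 nM. H4R3 methylation was detected by antibody/HRP ELISA at 450 nm to give IC50.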

IC50	SMILES
100 to 1000 nM	C[C@@H]1CN(C[C@H](O)CN2CCc3ccccc3C2)C(=O)c2ccc(OC3CCN(CCO)CC3)cc2O1 [Example 261, (2R)-4-[(2R)-3-(3,4-dihydro-1H-isoquinolin-2-yl)-2-hydroxy-propyl]-8-[[1-(2-hydroxyethyl)-4-piperidyl]oxy]-2-methyl-2,3-dihydro-1,4-benzoxazepin-5-one di hydrochloride]
100 to 1000 nM	C[C@@H]1CN(C[C@H](O)CN2CCc3ccccc3C2)C(=O)c2ccc(O[C@H]3CCN(C)C3)cc2O1 [Example 264, (2R)-4-[(2R)-3-(3,4-dihydro-1H-isoquinolin-2-yl)-2-hydroxy-propyl]-2-methyl-8-[(3S)-1-methylpyrrolidin-3-yl]oxy-2,3-dihydro-1,4-benzoxazepin-5-one]
100 to 1000 nM	COCCN1CCC(Oc2ccc3c(n2)OC(C)(C)CN(C[C@H](O)CN2CCc4ccccc4C2)C3=O)CC1 [Example 262, 4-[(2R)-3-(3,4-dihydro-1H-isoquinolin-2-yl)-2-hydroxy-propyl]-8-[[1-(2-methoxyethyl)-4-piperidyl]oxy]-2,2-dimethyl-3H-pyrido[3,2-f][1,4]oxazepin-5-one]

More lines, now with the values behind:

SMILES	IC50
CN1CCN(C[C@H](O)CN2CCc3ccccc3C2)C(=O)c2ccc(C3=CCC(C(F)(F)F)CC3)cc21 (stereo partly drawn) [Example 119, 4-[(2R)-3-(3,4-dihydro-1H-isoquinolin-2-yl)-2-hydroxy-propyl]-1-methyl-8-[4-(trifluoromethyl)cyclohexen-1-yl]-2,3-dihydro-1,4-benzodiazepin-5-one]	100 to 1000 nM
O=C1c2ccc(OCCN3CCOCC3)cc2OCCN1C[C@H](O)CN1CCc2ccccc2C1 [Example 73, 4-[(2R)-3-(3,4-dihydro-1H-isoquinolin-2-yl)-2-hydroxy-propyl]-8-(2-morpholinoethoxy)-2,3-dihydro-1,4-benzoxazepin-5-one]	100 to 1000 nM
COCCN1CC[C@@H](Oc2ccc3c(c2)O[C@H](C)CN(C[C@H](O)CN2CCc4ccccc4C2)C3=O)C1 [Example 274, (2R)-4-[(2R)-3-(3,4-dihydro-1H-isoquinolin-2-yl)-2-hydroxy-propyl]-8-[(3R)-1-(2-methoxyethyl)pyrrolidin-3-yl]oxy-2-methyl-2,3-dihydro-1,4-benzoxazepin-5-one]	100 to 1000 nM
O=C1c2ccc(CN3CCC(O)CC3)cc2OCCN1C[C@H](O)CN1CCc2ccccc2C1 [Example 45, 4-[(2R)-3-(3,4-dihydro-1H-isoquinolin-2-yl)-2-hydroxy-propyl]-8-[(4-hydroxy-1-piperidyl)methyl]-2,3-dihydro-1,4-benzoxazepin-5-one]	1 to 100 nM
O=C1CCC(Oc2ccc3c(c2)OCCN(C[C@H](O)CN2CCc4ccccc4C2)C3=O)CN1 (stereo partly drawn) [Example 76, 4-[(2R)-3-(3,4-dihydro-1H-isoquinolin-2-yl)-2-hydroxy-propyl]-8-[(6-oxo-3-piperidyl)oxy]-2,3-dihydro-1,4-benzoxazepin-5-one]	100 to 1000 nM
CC(=O)N1CC(Oc2ccc3c(c2)OCCN(C[C@H](O)CN2CCc4ccccc4C2)C3=O)C1 [Example 83, 8-(1-acetylazetidin-3-yl)oxy-4-[(2R)-3-(3,4-dihydro-1H-isoquinolin-2-yl)-2-hydroxy-propyl]-2,3-dihydro-1,4-benzoxazepin-5-one]	100 to 1000 nM
CC(=O)N1CC(Oc2ccc3c(c2)OC(C)(C)CN(C[C@H](O)CN2CCc4ccccc4C2)C3=O)C1 [Example 114, 8-(1-acetylazetidin-3-yl)oxy-4-[(2R)-3-(3,4-dihydro-1H-isoquinolin-2-yl)-2-hydroxy-propyl]-2,2-dimethyl-3H-1,4-benzoxazepin-5-one]	1 to 100 nM
CCN(CC)Cc1ccc2c(c1)OCCN(C[C@H](O)CN1CCc3ccccc3C1)C2=O [Example 26, 8-(diethylaminomethyl)-4-[(2R)-3-(3,4-dihydro-1H-isoquinolin-2-yl)-2-hydroxy-propyl]-2,3-dihydro-1,4-benzoxazepin-5-one]	100 to 1000 nM
